Assay results: patent publication US10613105B2, “Competitive immunoassay test system for detecting a pyrogen” (FRAUNHOFER-GESELLSCHAFT ZUR FORDERUNG DER ANGEWANDTEN …, priority 2014, dated 2020)

Target: T1, TLR4 (Homo sapiens, UniProt O00206)
T1 construct: purchased Hölzel Diagnostik GmbH 10146-H08B-100; host or cells: baculovirus insect cells
Assay: Surface plasmon resonance spectroscopy (Biacore T200), TLR4 immobilized on NTA sensor chip via his-tag
Type: binding
Conditions: for Ka in 1/M / Kd: HBS-P+ with 50 μM EDTA, 20° C., 10 μL/min, 5 concentrations
Excerpt: The affinity of a ligand to its receptor describes the tendency thereof to enter into a bond with the receptor. The greater affinity, the greater the association constant Ka is. The strength of the receptor/ligand interaction can be determined experimentally with the aid of surface plasmon resonance spectroscopy (Biacore T200, GE Healthcare) and quantified by the so-called dissociation constant (Kd). Kd is thereby the reciprocal value of Ka, a thermodynamic value, which indicates which portion of the ligand is bound on average to the receptor protein and has the dimension of a concentration. The Biacore chip system is based on a glass slide with a gold film in a flow cell. TLR4 was immobilized on the NTA sensor chip via its his-tag in accordance with the manufacturer's protocol and the to-be-tested ligands, control compounds and LPS were passed over it dissolved in HBS-P+ with 50 μM EDTA at 20° C. with a flow rate of 10 μL/min in respectively 5 concentrations. The bond with TLR4 is measured as a change in the refractive index in the flow cell as compared to a reference cell as a response difference in RU. 1 RU corresponds thereby to 1 pg of bound ligand. After ligand injection, buffer is used for rinsing in order to ideally recreate the initial state, complete disassociation of the ligand.

T1 sequence (O00206 24-631 limits assumed): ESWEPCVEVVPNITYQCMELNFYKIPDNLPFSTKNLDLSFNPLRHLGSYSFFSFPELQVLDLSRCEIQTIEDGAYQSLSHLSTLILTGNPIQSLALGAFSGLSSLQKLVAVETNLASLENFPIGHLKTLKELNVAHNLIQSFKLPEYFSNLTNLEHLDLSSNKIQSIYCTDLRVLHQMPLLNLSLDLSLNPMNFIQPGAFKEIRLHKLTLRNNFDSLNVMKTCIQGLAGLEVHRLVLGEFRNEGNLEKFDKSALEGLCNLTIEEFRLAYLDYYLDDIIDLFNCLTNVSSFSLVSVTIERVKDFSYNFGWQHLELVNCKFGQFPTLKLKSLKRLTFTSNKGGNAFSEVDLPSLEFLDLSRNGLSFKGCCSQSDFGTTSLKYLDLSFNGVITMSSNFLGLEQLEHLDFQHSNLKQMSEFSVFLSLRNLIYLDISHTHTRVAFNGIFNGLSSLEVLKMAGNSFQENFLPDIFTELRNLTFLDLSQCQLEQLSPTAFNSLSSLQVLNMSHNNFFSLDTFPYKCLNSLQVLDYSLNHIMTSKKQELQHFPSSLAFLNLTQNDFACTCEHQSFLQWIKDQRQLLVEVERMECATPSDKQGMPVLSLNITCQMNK

| Compound | Ka in 1/M | Kd [nM] | reduction of binding affinity for TLR4 by the TAMRA labeling (T5635346 with vs without TAMRA labeling) [fold] |
| --- | --- | --- | --- |
| Cc1ccc(C(=O)N2CCOCC2)c(O)c1 [T5635346, (2-hydroxy-4-methylphenyl)-morpholin-4-ylmethanone] | 4,135,649 1/M | 242 | 40 |
| CC(C)CN1CCOC(CNC(=O)Nc2ccc3c(c2)OCO3)C1 (centres unmarked) [T5874283, 1-(1,3-benzodioxol-5-yl)-3-[[4-(2-methylpropyl)morpholin-2-yl]methyl]urea] | 9,803,922 1/M | 102 |  |
